Values joined by “and” are separate entries in the source; they are usually repeats but may differ in a detail not shown here. Equal values may be shown once.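 Following 48 hours of exposure in 96-well plates, responses at five concentrations were used to interpolate endpoints linearly. GI50: concentration for 50% inhibition of growth. The concentration for full growth arrest is given as TGI.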
Key:
Assay in all cases: NCI tumour cell line growth inhibition, 48 h
[1] = tested on: HCT-15 colon
[2] = tested on: ACHN renal
[3] = tested on: BT-549 breast
[4] = tested on: MOLT-4 leukemia
[5] = tested on: SN12C renal
[6] = tested on: MALME-3M melanoma
[7] = tested on: 786-0 renal
[8] = tested on: OVCAR-3 ovarian

Compound	GI50 [1]	TGI [1]	GI50 [2]	TGI [2]	GI50 [3]	TGI [3]	GI50 [4]	TGI [4]	GI50 [5]	TGI [5]	GI50 [6]	TGI [6]	GI50 [7]	TGI [7]	GI50 [8]	TGI [8]
O=c1c(-c2ccccc2)coc2cc(OC/C(=N/O)c3ccc(F)cc3)ccc12	21.3 µM	50.3 µM	22.4 µM	43.5 µM	20.3 µM	41.8 µM	24 µM	> 100 µM	16.2 µM	34.2 µM	10.1 µM	31.9 µM	19.3 µM	41.8 µM	19.7 µM	47.4 µM
CN(c1ccc(C#N)c(Cl)c1)C1CCC(NC(=O)c2ccc(N3CCN(C4CN(c5ccc6c(c5)C(=O)N(C5CCC(=O)NC5=O)C6=O)C4)CC3)cc2)CC1 (stereo not given)	> 100 µM	> 100 µM	> 100 µM	> 100 µM	98.6 µM	> 100 µM	> 100 µM	> 100 µM	> 100 µM	> 100 µM	48.8 µM	> 100 µM	> 100 µM	> 100 µM	> 100 µM	> 100 µM
Cc1cc(NC(=O)c2cnc(N3CCN(CCOCCOCCOCCOCCC(=O)N[C@H](C(=O)N4C[C@H](O)C[C@H]4C(=O)N[C@@H](C)c4ccc(-c5scnc5C)cc4)C(C)(C)C)CC3)cn2)c2ncccc2c1	6.39 µM	> 100 µM	12 µM	> 100 µM	1.83 µM	3.69 µM	3.12 µM	9.67 µM	2.52 µM	7.64 µM	1.76 µM	3.68 µM	4.61 µM	> 100 µM	2.13 µM	4.45 µM
CC1(C)CC2=C(Sc3ccccc3N2)C(=O)C1C(=O)C(=O)Nc1cc(Cl)ccc1Cl (stereo not given)	–	> 100 µM	–	> 100 µM	–	> 100 µM	–	> 100 µM	–	> 100 µM	–	> 100 µM	–	> 100 µM	–	> 100 µM
CCN(CC)C(=S)SSC(=S)N(CC)CC	20.1 µM and 20.9 µM	> 56.6 µM and 59.8 µM	19 µM and 18 µM	36.9 µM and 34.4 µM	19.2 µM and 19.9 µM	38 µM and 44.2 µM	17.7 µM and 16 µM	46.6 µM and 48.5 µM	15 µM and 15.5 µM	29.3 µM and 31.9 µM	18 µM and 21 µM	37.5 µM and 50 µM	24.1 µM and 18.6 µM	> 56.2 µM and 39.7 µM	15.1 µM and 15.3 µM	32.5 µM and 29.4 µM
COc1cc(/C=C/[N+](=O)[O-])cc(OC)c1OC	1.96 µM	5.04 µM	1.83 µM	3.46 µM	2.19 µM	4.57 µM	4.56 µM	34.1 µM	2.51 µM	9.26 µM	2.29 µM	6.06 µM	1.9 µM	3.53 µM	2.81 µM	6.63 µM
NNc1c2ccccc2nc2ccccc12	4.2 µM	34.2 µM	5.31 µM	33.9 µM	4.15 µM	36.8 µM	0.897 µM	> 100 µM	6.44 µM	56.7 µM	5.03 µM	36.1 µM	6.2 µM	29.4 µM	5.85 µM	27.3 µM
CCN(C(=O)CN1CCN(c2cc3c(cc2F)c(=O)c(C(=O)O)cn3CC)CC1)c1nc(-c2ccccc2)cs1	0.356 µM	> 100 µM	0.33 µM	> 100 µM	0.344 µM	> 100 µM	0.376 µM	> 100 µM	0.402 µM	> 100 µM	0.214 µM	0.66 µM	0.384 µM	> 100 µM	0.475 µM	> 100 µM
C[C@H]1c2ccccc2CN1CCCOc1cc2c(cc1OCC1CC1)C1(CCCC1)C(N)=N2	1.46 µM	5.1 µM	1.8 µM	6.69 µM	4.8 µM	10.8 µM	1.4 µM	4.93 µM	2.59 µM	9.18 µM	0.888 µM	1.68 µM	2.06 µM	8.2 µM	1.91 µM	6.86 µM
CCOC1OC(=O)[C@H]2[C@@H]1[C@@H]1CC[C@H]2O1 (stereo not given in full)	> 100 µM	> 100 µM	> 100 µM	> 100 µM	> 100 µM	> 100 µM	> 100 µM	> 100 µM	> 100 µM	> 100 µM	–	–	> 100 µM	> 100 µM	> 100 µM	> 100 µM
Clc1ccccc1NN(Cc1ccncc1)c1ccccc1Cl	–	34.3 µM	–	35.6 µM	–	33.7 µM	–	33.9 µM	–	26.5 µM	–	35.9 µM	–	26.6 µM	–	26.3 µM
CC1=C(Cl)C[C@@H](/C(C)=C\Cl)O[C@@]1(O)C(Br)Br	–	32.4 µM	–	75 µM	–	79.6 µM	–	> 100 µM	–	37.2 µM	–	79.8 µM	–	> 100 µM	–	31.3 µM
CN1CCN(c2cc3nc4ccccc4n(-c4ccc(Cl)cc4)c-3cc2=N)CC1	23.4 µM	81.3 µM	23.4 µM	> 100 µM	41.6 µM	> 100 µM	12.8 µM	32 µM	19.4 µM	41.4 µM	17.2 µM	33.1 µM	31.4 µM	> 100 µM	2.78 µM	16.7 µM
OCc1ccc(N2CCCC2)cc1Cl	31 µM	> 100 µM	29.2 µM	> 75.3 µM	32 µM	> 100 µM	36.9 µM	> 100 µM	47.6 µM	> 100 µM	27.3 µM	73 µM	27.5 µM	> 100 µM	2.18 µM	7.25 µM
Oc1c(Cl)cc(Cl)c2cccnc12	4.73 µM	25.9 µM	3.78 µM	40.5 µM	4.12 µM	52.7 µM	3.41 µM	17.8 µM	3.39 µM	51.8 µM	2.78 µM	13.1 µM	3.29 µM	11.8 µM	3.17 µM	11.6 µM
COc1ccc2c(c1)C(=O)c1c-2c(N2CCNCC2)nc2ccccc12	3.44 µM	11.8 µM	2.78 µM	8.24 µM	3.4 µM	11.4 µM	0.688 µM	3.03 µM	3.91 µM	14.9 µM	1.79 µM	4.34 µM	3.17 µM	13.3 µM	13 µM	30 µM
CCN(CC)CCCC(C)Nc1c(-c2ccccc2)cnc2cc(Cl)ccc12 (stereo not given)	3.62 µM	13.6 µM	13 µM	36.6 µM	8.76 µM	22.3 µM	4.38 µM	31.9 µM	8.9 µM	36.5 µM	1.93 µM	4.62 µM	6.38 µM	20.6 µM	12.5 µM	26.5 µM

Compound	GI50 [1]	TGI [1]	GI50 [2]	TGI [2]	GI50 [3]	TGI [3]	GI50 [4]	TGI [4]	GI50 [5]	TGI [5]	GI50 [6]	TGI [6]	GI50 [7]	TGI [7]	GI50 [8]	TGI [8]
O=C(Nc1cnc(C(F)(F)F)cn1)c1cc(Cl)ccc1O	0.307 µM	3.24 µM	0.269 µM	1.16 µM	0.255 µM	0.835 µM	0.352 µM	1.78 µM	0.326 µM	52.4 µM	0.197 µM	0.565 µM	0.356 µM	15.9 µM	0.279 µM	20.3 µM
C[C@@H]1COCCN1c1cc(-c2ccnn2C)c2ccnc(-c3ccn[nH]3)c2n1	0.0344 µM and 0.0968 µM	> 100 µM	0.0417 µM	0.596 µM	0.0481 µM and 0.0691 µM	0.876 µM and 1.76 µM	0.0319 µM and 0.0751 µM	9.08 µM	0.184 µM and 0.314 µM	> 100 µM	0.179 µM and 0.273 µM	1.52 µM and 3.7 µM	0.0406 µM and 0.079 µM	0.483 µM	0.223 µM and 0.406 µM	–
Nc1ncccc1-c1nc2ccc(-c3ccccc3)nc2n1-c1ccc(C2(N)CCC2)cc1	1.34 µM	4.27 µM	1.14 µM	3.19 µM	0.344 µM	5.14 µM	0.188 µM	7.88 µM	2.29 µM	13.5 µM	0.197 µM	1.84 µM	0.212 µM	1.6 µM	0.353 µM	10.6 µM
NCCC(=O)NC(Cc1cnc[nH]1)C(=O)O (stereo not given)	–	> 100 µM	–	> 100 µM	–	–	–	> 100 µM	–	> 100 µM	–	> 100 µM	–	> 100 µM	–	> 100 µM
C=C1CC[C@@H]2[C@](C)(COC(C)=O)[C@H](OC(C)=O)CC[C@@]2(C)[C@@H]1CC(Nc1ccc(S(=O)(=O)Nc2nccs2)cc1)C1=CCOC1=O (stereo not given in full)	1.73 µM	4.12 µM	5.99 µM	18.9 µM	2.43 µM	6.5 µM	3.68 µM	73.2 µM	1.87 µM	4.39 µM	–	–	2.55 µM	6.74 µM	1.88 µM	3.64 µM
CC1=C(C(=O)Nc2ccc(F)c(Cl)c2)C(c2ccccc2O)NC(=O)N1 (stereo not given)	> 100 µM	> 100 µM	> 100 µM	> 100 µM	71.5 µM	> 100 µM	–	–	> 100 µM	> 100 µM	–	–	> 100 µM	> 100 µM	65.4 µM	> 100 µM
Nc1n[nH]c2ccc([C@@H]3Nc4cc5[nH]ncc5cc4[C@H]4C5CCC(C5)[C@@H]34)cc12 (stereo not given in full)	0.431 µM	> 100 µM	0.723 µM	53.5 µM	0.725 µM	> 46 µM	0.442 µM	> 100 µM	0.525 µM	> 82.9 µM	–	–	0.709 µM	> 66.7 µM	0.381 µM	13.3 µM
COc1cccc(C2C(C#N)=C(N)Oc3c2ccc2ccccc32)c1 (stereo not given)	< 0.01 µM	10.2 µM	< 0.01 µM	13.4 µM	0.029 µM	12.1 µM	0.0409 µM	17.8 µM	0.0406 µM	13.5 µM	–	–	0.0364 µM	12.3 µM	< 0.0144 µM	0.0439 µM
O=C(Nc1ccccc1Cl)c1cccc(NC2=C(Cl)C(=O)N(Cc3ccccc3)C2=O)c1	14.1 µM	> 100 µM	60.5 µM	> 100 µM	22.5 µM	> 100 µM	2.52 µM	> 100 µM	–	–	–	–	10.2 µM	60.5 µM	12.5 µM	33.3 µM
COc1ccc2c(c1)C(=O)c1c-2n(CCCN)c(=O)c2cc([N+](=O)[O-])ccc12	1.77 µM	> 100 µM	–	–	< 0.01 µM	–	< 0.01 µM	< 0.01 µM	< 0.01 µM	< 0.01 µM	2.25 µM	7.64 µM	< 0.01 µM	< 0.01 µM	2.79 µM	15.9 µM
COc1ccc(-c2ccc(/C=N/n3c(COc4ccccc4Cl)n[nH]c3=S)o2)c([N+](=O)[O-])c1	26.5 µM	89.2 µM	25.6 µM	69.5 µM	–	–	–	–	26.4 µM	82.4 µM	–	–	28.4 µM	> 100 µM	17.7 µM	46.7 µM
CCN(CC)CCC(CNc1c(C)cnc2cc(Cl)ccc12)c1ccc(Cl)cc1 (stereo not given)	–	–	6.47 µM	20.1 µM	11.2 µM	24.9 µM	5.27 µM	23.8 µM	12.8 µM	28.8 µM	–	–	8.53 µM	22.6 µM	11.9 µM	25.5 µM
COc1cc(C2CC(=O)Nc3c2cc(Br)c2ccccc32)cc(Br)c1OC (stereo not given)	0.907 µM	> 100 µM	–	–	3.47 µM	> 71 µM	2.78 µM	> 47.6 µM	2.54 µM	> 100 µM	1.81 µM	67.2 µM	1.76 µM	3.79 µM	1.14 µM	2.52 µM
Nc1cc2cccc[n+]2c2cccc(Cl)c12	–	–	41.8 µM	–	16.1 µM	48.8 µM	7.46 µM	–	7.16 µM	42.1 µM	3.21 µM	13.5 µM	22.1 µM	–	–	–
N.N.N.N.N.O=S(=O)([O-])C(F)(F)F.O=S(=O)([O-])C(F)(F)F.[Os+8]	17 µM	56.4 µM	19.8 µM	> 100 µM	–	–	0.876 µM	14.7 µM	12.7 µM	37.3 µM	4.53 µM	19.9 µM	4.2 µM	16.4 µM	–	–
CCSc1nc(N)c(C#N)c(-c2ccco2)c1C#N	28.4 µM	> 100 µM	16.9 µM	69.2 µM	32.3 µM	> 100 µM	51.9 µM	> 100 µM	> 100 µM	> 100 µM	–	–	39.6 µM	> 100 µM	91.3 µM	> 100 µM

Reference: PubChem BioAssay (NCI)
